pIC50: −log10 of the molar value. Where only a bound is given, the exact number is not on record here.

Experiment [1] has as its system acute myelocytic leukemia (AML) cell line MV4-11. In words: Oncology cell growth assay (3-day proliferation, CellTiter-Glo). The format is cell-based. As to conditions: Homo sapiens, MV4-11, 72 h, MV4-11 cells, 3000 cells/well, compounds listed under IC50 range headings, read-out: MV411 IC50 (gIC50, inhibition of proliferation). Put shortly: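 A 3-day proliferation test used MV4-11 cells seeded at 3000 per well with eight compound concentrations (10 μM top, 3-fold dilution) at 37° C in 5% CO2. CellTiter-Glo luminescence defined viable cell signal. A four-parameter logistic curve against DMSO and background wells gave the gIC50.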

Experiment [2] has as its target T1, BRD4 Bromodomain 2 (BRD4 BD2) (Homo sapiens, UniProt O60885).
T1 construct: 333-460 were cloned, expressed, and purified to homogeneity
In words: AlphaScreen binding assay, BRD4 BD2. As to conditions: His-tagged BRD4 BD2 100 nM, biotinylated H4 (1-21) K5/8/12/16 tetra-acetylated peptide 100 nM, compounds listed under IC50 range headings. The essentials: (§1)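 Compound dilution series were mixed with His-tagged BRD4 bromodomain and biotinylated tetra-acetylated H4 (1-21) peptide at pH 7.3 (BD1 and peptide at 50 nM, BD2 and peptide at 100 nM). Donor and acceptor beads were then added, and plates were equilibrated at least 1 h before reading. IC50 values were fitted with a four-parameter logistic model.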

Experiment [3] addresses T2, BRD4 Bromodomain 1 (BRD4 BD1) (Homo sapiens, UniProt O60885).
T2 construct: 44-168 and BRD4 BD2
In words: AlphaScreen binding assay, BRD4 BD1. The note with it: His-tagged BRD4 BD1 50 nM, biotinylated H4 (1-21) K5/8/12/16 tetra-acetylated peptide 50 nM, compounds listed under IC50 range headings. Put shortly:
as §1
In general terms: In Alpha technology, singlet oxygen from a donor bead excites a nearby acceptor bead.

On to `COC(=O)N1c2ccc(-c3cnn(C4CCNCC4)c3)c(Oc3ccc(C#N)cc3Cl)c2CC[C@@H]1C` [I-134, (S)-methyl 5-(2-chloro-4-cyanophenoxy)-2-methyl-6-(1-(piperidin-4-yl)-1H-pyrazol-4-yl)-3,4-dihydroquinoline-1(2H)-carboxylate], for which the pIC50 in experiment [1] was over 6.30; in experiment [2], over 7.30; in experiment [3], 6.00 to 7.00.
The like results for `COC(=O)N1c2ccc(-c3cnn(C4CCNCC4)c3)c(Oc3ccc(C#N)cc3F)c2CC[C@@H]1C` [I-135, (S)-methyl 5-(4-cyano-2-fluorophenoxy)-2-methyl-6-(1-(piperidin-4-yl)-1H-pyrazol-4-yl)-3,4-dihydroquinoline-1(2H)-carboxylate] were, in that order, over 6.30, over 7.30 and 6.00 to 7.00.
The like results for `CC(=O)N1c2ccc(-c3cnn(C4CCNCC4)c3)c(Oc3ccccc3C#N)c2CC[C@@H]1C` [I-136, (S)-2-(1-acetyl-2-methyl-6-(1-(piperidin-4-yl)-1H-pyrazol-4-yl)-1,2,3,4-tetrahydroquinolin-5-yloxy)benzonitrile] were, in that order, over 6.30, over 7.30 and 6.00 to 7.00.
The like results for `COC(=O)N1c2ccc(-c3cnn(C4CCNCC4)c3)c(Oc3ccccc3C#N)c2CC[C@@H]1C` [I-137, methyl (S)-5-(2-cyanophenoxy)-2-methyl-6-(1-(piperidin-4-yl)-1H-pyrazol-4-yl)-3,4-dihydroquinoline-1(2H)-carboxylate] were, in that order, over 6.30, over 7.30 and 6.00 to 7.00.
On to `COC(=O)N1c2ccc(-c3cnn(C4CNC4)c3)c(Oc3ccccc3C#N)c2CC[C@@H]1C` [I-138, (S)-methyl 6-(1-(azetidin-3-yl)-1H-pyrazol-4-yl)-5-(2-cyanophenoxy)-2-methyl-3,4-dihydroquinoline-1(2H)-carboxylate], for which the pIC50 is over 6.30 in experiment [1], over 7.30 in experiment [2] and 6.00 to 7.00 in experiment [3].
The matching figures for `COC(=O)N1c2ccc(-c3cnn(C4CNC4)c3)c(Oc3cccc(F)c3C#N)c2CC[C@@H]1C` [I-139, (S)-methyl 6-(1-(azetidin-3-yl)-1H-pyrazol-4-yl)-5-(2-cyano-3-fluorophenoxy)-2-methyl-3,4-dihydroquinoline-1(2H)-carboxylate]: over 6.30, over 7.30 and 6.00 to 7.00.
As to `CC(=O)N1c2ccc(-c3cnn(C4CCNCC4)c3)c(Oc3ccc(C#N)cc3)c2CC[C@@H]1C` [I-140, (S)-4-(1-acetyl-2-methyl-6-(1-(piperidin-4-yl)-1H-pyrazol-4-yl)-1,2,3,4-tetrahydroquinolin-5-yloxy)benzonitrile], the pIC50 in experiment [1] was over 6.30; in experiment [2], over 7.30; in experiment [3], 6.00 to 7.00.
For `CC(=O)N1c2ccc(-c3cnn(C4CCNCC4)c3)c(Oc3ncccc3C(F)(F)F)c2CC[C@@H]1C` [I-141, (S)-1-(2-methyl-6-(1-(piperidin-4-yl)-1H-pyrazol-4-yl)-5-(3-(trifluoromethyl)pyridin-2-yloxy)-3,4-dihydroquinolin-1(2H)-yl)ethanone], the figures for the pIC50 in experiment [1], in experiment [2] and in experiment [3] were over 6.30, over 7.30 and 6.00 to 7.00, respectively.
The like results for `CC(=O)N1c2ccc(-c3cnn(C4CCNCC4)c3)c(Oc3ncccc3Cl)c2CC[C@@H]1C` [I-142, (S)-1-(5-(3-chloropyridin-2-yloxy)-2-methyl-6-(1-(piperidin-4-yl)-1H-pyrazol-4-yl)-3,4-dihydroquinolin-1 (2H)-yl)ethanone] were, in that order, over 6.30, 6.30 to 7.30 and 6.00 to 7.00.
The matching figures for `CC(=O)N1c2ccc(-c3cnn(C4CCNCC4)c3)c(Oc3ncccc3C#N)c2CC[C@@H]1C` [I-143, (S)-2-(1-acetyl-2-methyl-6-(1-(piperidin-4-yl)-1H-pyrazol-4-yl)-1,2,3,4-tetrahydroquinolin-5-yloxy)nicotinonitrile]: over 6.30, 6.30 to 7.30 and 6.00 to 7.00.
The like results for `CC(=O)N1c2ccc(-c3cnn(C4CCNCC4)c3)c(Oc3ncc(C)cn3)c2CC[C@@H]1C` [I-144, (S)-1-(2-methyl-5-(5-methylpyrimidin-2-yloxy)-6-(1-(piperidin-4-yl)-1H-pyrazol-4-yl)-3,4-dihydroquinolin-1 (2H)-yl)ethanone] were, in that order, over 6.30, over 7.30 and 6.00 to 7.00.
For the molecule `CC(=O)N1c2ccc(-c3cnn(C4CCNCC4)c3)c(Oc3cnccn3)c2CC[C@@H]1C` [I-145, (S)-1-(2-methyl-6-(1-(piperidin-4-yl)-1H-pyrazol-4-yl)-5-(pyrazin-2-yloxy)-3,4-dihydroquinolin-1(2H)-yl)ethanone], the pIC50 in experiment [1] is over 6.30; in experiment [2] it was over 7.30; in experiment [3] it was 6.00 to 7.00.
With `COC(=O)N1c2ccc(-c3cnn(C4CCNCC4)c3)c(Oc3ccc(C#N)cc3)c2CC[C@@H]1C` [I-146, (S)-methyl 5-(4-cyanophenoxy)-2-methyl-6-(1-(piperidin-4-yl)-1H-pyrazol-4-yl)-3,4-dihydroquinoline-1(2H)-carboxylate], the results for the pIC50 in experiment [1], in experiment [2] and in experiment [3] were over 6.30, 6.30 to 7.30 and 6.00 to 7.00, respectively.
As to `COC(=O)N1c2ccc(-c3cnn(C4CCNCC4)c3)c(Oc3ncccc3C#N)c2CC[C@@H]1C` [I-147, (S)-methyl 5-(3-cyanopyridin-2-yloxy)-2-methyl-6-(1-(piperidin-4-yl)-1H-pyrazol-4-yl)-3,4-dihydroquinoline-1(2H)-carboxylate], the pIC50 was over 6.30 in experiment [1], 6.30 to 7.30 in experiment [2] and 5.00 to 6.00 in experiment [3].
The like results for `COC(=O)N1c2ccc(-c3cnn(C4CCNCC4)c3)c(Oc3cccc(F)c3C#N)c2CC[C@@H]1C` [I-148, (S)-methyl 5-(2-cyano-3-fluorophenoxy)-2-methyl-6-(1-(piperidin-4-yl)-1H-pyrazol-4-yl)-3,4-dihydroquinoline-1(2H)-carboxylate] were, in that order, over 6.30, over 7.30 and 6.00 to 7.00.
The like results for `COC(=O)N1c2ccc(-c3cnn(C4CCNCC4)c3)c(Oc3cccc(Cl)c3C#N)c2CC[C@@H]1C` [I-149, (S)-methyl 5-(3-chloro-2-cyanophenoxy)-2-methyl-6-(1-(piperidin-4-yl)-1H-pyrazol-4-yl)-3,4-dihydroquinoline-1(2H)-carboxylate] were, in that order, over 6.30, over 7.30 and 6.00 to 7.00.
The like results for `C[C@H]1CCc2c(ccc(-c3cnn(C4CCNCC4)c3)c2Oc2ccccc2C#N)N1C(=O)C1CC1` [I-150, (S)-2-(1-(cyclopropanecarbonyl)-2-methyl-6-(1-(piperidin-4-yl)-1H-pyrazol-4-yl)-1,2,3,4-tetrahydroquinolin-5-yloxy)benzonitrile] were, in that order, over 6.30, over 7.30 and 6.00 to 7.00.
Consider `C[C@H]1CCc2c(ccc(-c3cnn(C4CCNCC4)c3)c2Oc2cccc(F)c2C#N)N1C(=O)C1CC1` [I-151, (S)-2-(1-(cyclopropanecarbonyl)-2-methyl-6-(1-(piperidin-4-yl)-1H-pyrazol-4-yl)-1,2,3,4-tetrahydroquinolin-5-yloxy)-6-fluorobenzonitrile], for which the values for the pIC50 in experiment [1], in experiment [2] and in experiment [3] were over 6.30, over 7.30 and 6.00 to 7.00, respectively.
The like results for `C[C@H]1CCc2c(ccc(-c3cnn(C4CCNCC4)c3)c2Oc2ccc(C#N)cc2F)N1C(=O)C1CC1` [I-152, (S)-4-(1-(cyclopropanecarbonyl)-2-methyl-6-(1-(piperidin-4-yl)-1H-pyrazol-4-yl)-1,2,3,4-tetrahydroquinolin-5-yloxy)-3-fluorobenzonitrile] were, in that order, over 6.30, over 7.30 and 6.00 to 7.00.
The like results for `CC(=O)N1c2ccc(-c3cnn(C4CC4)c3)c(Oc3ccccc3C#N)c2CC[C@@H]1C` [I-153, (S)-2-(1-acetyl-6-(1-cyclopropyl-1H-pyrazol-4-yl)-2-methyl-1,2,3,4-tetrahydroquinolin-5-yloxy)benzonitrile] were, in that order, over 6.30, over 7.30 and 6.00 to 7.00.
The matching figures for `CC(=O)N1c2ccc(-c3cnn(C4CCNCC4)c3)c(Oc3ccc(C(N)=O)cc3)c2CC[C@@H]1C` [I-155, (S)-4-(1-acetyl-2-methyl-6-(1-(piperidin-4-yl)-1H-pyrazol-4-yl)-1,2,3,4-tetrahydroquinolin-5-yloxy)benzamide]: under 6.00, 6.30 to 7.30 and 6.00 to 7.00.
In the case of `CC(=O)N1c2ccc(-c3cnn(C4CCNCC4)c3)c(Oc3ccccc3Cl)c2CC[C@@H]1C` [I-157, (S)-1-(5-(2-chlorophenoxy)-2-methyl-6-(1-(piperidin-4-yl)-1H-pyrazol-4-yl)-3,4-dihydroquinolin-1(2H)-yl)ethanone], the pIC50 was over 6.30 in experiment [1], over 7.30 in experiment [2] and 6.00 to 7.00 in experiment [3].
Regarding `COC(=O)N1c2ccc(-c3cnn(C4CCNCC4)c3)c(Oc3ccc(F)cc3)c2CC[C@@H]1C` [I-158, (S)-methyl 5-(4-fluorophenoxy)-2-methyl-6-(1-(piperidin-4-yl)-1H-pyrazol-4-yl)-3,4-dihydroquinoline-1(2H)-carboxylate], the results for the pIC50 in experiment [1], in experiment [2] and in experiment [3] were over 6.30, over 7.30 and 6.00 to 7.00, respectively.

The values are drawn from US10611750B2, “Tetrahydroquinoline compositions as bet bromodomain inhibitors” (FORMA Therapeutics, Inc., priority 2013, dated 2020).
